Data as given in ChEMBL document CHEMBL3880421, “Indazole compounds and pharmaceutical compositions for inhibiting protein kinases, and methods for their use” (2003).

Columns and labels:
[1] = Antiproliferative activity against VEGF-stimulated HUVEC cells assessed as reduction in cell viability at 2 nM preincubated for 1 hr followed by addition of VEGF measured after 72 hrs by MTT assay; type: functional; details: Homo sapiens
[2] = Antiproliferative activity against VEGF-stimulated HUVEC cells assessed as reduction in cell viability at 0.5 nM preincubated for 1 hr followed by addition of VEGF measured after 72 hrs by MTT assay; type: functional; details: Homo sapiens

Structure (SMILES)	inhibition at 0.002 µM [1]	inhibition at 0.0005 µM [2]
C=CCONC(=O)c1ccccc1Nc1ccc2c(/C=C/c3ccccn3)n[nH]c2c1	103 to 108%	51 to 92%
CCOCCNC(=O)c1ccccc1Nc1ccc2c(/C=C/c3ccccn3)n[nH]c2c1	75%	53%
O=C(NCCCN1CCCC1)c1ccccc1Nc1ccc2c(/C=C/c3ccccn3)n[nH]c2c1	2%	20%
NC(=O)[C@H](CO)NC(=O)c1ccccc1Nc1ccc2c(/C=C/c3ccccn3)n[nH]c2c1	4%	17%
CCN1CC(NC(=O)c2ccccc2Nc2ccc3c(/C=C/c4ccccn4)n[nH]c3c2)CN1CC	-19%	2%
Cc1noc(NC(=O)c2ccccc2Nc2ccc3c(/C=C/c4ccccn4)n[nH]c3c2)c1C	36%	15%
CCN(CC)CCCC(C)NC(=O)c1ccccc1Nc1ccc2c(/C=C/c3ccccn3)n[nH]c2c1 (centres undefined)	15%	3%
N#CCCNNC(=O)c1ccccc1Nc1ccc2c(/C=C/c3ccccn3)n[nH]c2c1	5%	44%
CC(C)(C)c1cc(NC(=O)c2ccccc2Nc2ccc3c(/C=C/c4ccccn4)n[nH]c3c2)no1	4%	15%
O=C(NN1CCOCC1)c1ccccc1Nc1ccc2c(/C=C/c3ccccn3)n[nH]c2c1	53%	1%
O=C(NCCc1c[nH]cn1)c1ccccc1Nc1ccc2c(/C=C/c3ccccn3)n[nH]c2c1	-32%	23%
CN(C)CC(=O)NNC(=O)c1ccccc1Nc1ccc2c(/C=C/c3ccccn3)n[nH]c2c1	16%	41%
O=C(NCCCn1ccnc1)c1ccccc1Nc1ccc2c(/C=C/c3ccccn3)n[nH]c2c1	23%	23%
CC(C)CC(C)NC(=O)c1ccccc1Nc1ccc2c(/C=C/c3ccccn3)n[nH]c2c1 (centres undefined)	50%	55%
Nc1nnc(NC(=O)c2ccccc2Nc2ccc3c(/C=C/c4ccccn4)n[nH]c3c2)[nH]1	41%	-6%
O=C(NC1OCCO1)c1ccccc1Nc1ccc2c(/C=C/c3ccccn3)n[nH]c2c1	63%	35%
CCN(CCNC(=O)c1ccccc1Nc1ccc2c(/C=C/c3ccccn3)n[nH]c2c1)c1cccc(C)c1	1%	17%
O=C(NCCCN1CCCCC1)c1ccccc1Nc1ccc2c(/C=C/c3ccccn3)n[nH]c2c1	7%	16%
NC(=O)CCNC(=O)c1ccccc1Nc1ccc2c(/C=C/c3ccccn3)n[nH]c2c1	18%	8%
CC(CNC(=O)c1ccccc1Nc1ccc2c(/C=C/c3ccccn3)n[nH]c2c1)N(C)C (centres undefined)	1%	-9%
CCN(CC)CCCNC(=O)c1ccccc1Nc1ccc2c(/C=C/c3ccccn3)n[nH]c2c1	-1%	31%
O=C(Nc1nc2ccccc2[nH]1)c1ccccc1Nc1ccc2c(/C=C/c3ccccn3)n[nH]c2c1	43%	18%
CCC(CC)NC(=O)c1ccccc1Nc1ccc2c(/C=C/c3ccccn3)n[nH]c2c1	14%	25%

Structure (SMILES)	inhibition at 0.002 µM [1]	inhibition at 0.0005 µM [2]
O=C(NCc1ccccn1)c1ccccc1Nc1ccc2c(/C=C/c3ccccn3)n[nH]c2c1	43%	6%
COc1cccc(CNC(=O)c2ccccc2Nc2ccc3c(/C=C/c4ccccn4)n[nH]c3c2)c1	100%	58%
CC(=O)NCCNC(=O)c1ccccc1Nc1ccc2c(/C=C/c3ccccn3)n[nH]c2c1	27%	15%
O=C(NCP(=O)(O)O)c1ccccc1Nc1ccc2c(/C=C/c3ccccn3)n[nH]c2c1	6%	32%
O=C(NCCCN1CCCC1=O)c1ccccc1Nc1ccc2c(/C=C/c3ccccn3)n[nH]c2c1	35%	25%
Cc1ncc(CNC(=O)c2ccccc2Nc2ccc3c(/C=C/c4ccccn4)n[nH]c3c2)c(N)n1	17%	16%
O=C(NCC1CCCO1)c1ccccc1Nc1ccc2c(/C=C/c3ccccn3)n[nH]c2c1 (centres undefined)	44%	23%
CSCCCNC(=O)c1ccccc1Nc1ccc2c(/C=C/c3ccccn3)n[nH]c2c1	100%	44%
COC(=O)NNC(=O)c1ccccc1Nc1ccc2c(/C=C/c3ccccn3)n[nH]c2c1	21%	8%
Cn1cccc1C(=O)NNC(=O)c1ccccc1Nc1ccc2c(/C=C/c3ccccn3)n[nH]c2c1	49%	68%
CC(O)CNC(=O)c1ccccc1Nc1ccc2c(/C=C/c3ccccn3)n[nH]c2c1 (centres undefined)	2%	38%
Cc1cc(NNC(=O)c2ccccc2Nc2ccc3c(/C=C/c4ccccn4)n[nH]c3c2)nc(C)n1	35%	32%
CC(C)c1ccc(CNC(=O)c2ccccc2Nc2ccc3c(/C=C/c4ccccn4)n[nH]c3c2)cc1	51%	23%
CC1(C)OCC(CNC(=O)c2ccccc2Nc2ccc3c(/C=C/c4ccccn4)n[nH]c3c2)O1 (centres undefined)	69%	28%
CCCCCCCNC(=O)c1ccccc1Nc1ccc2c(/C=C/c3ccccn3)n[nH]c2c1	34%	9%
O=C(NC1CCN(Cc2ccccc2)CC1)c1ccccc1Nc1ccc2c(/C=C/c3ccccn3)n[nH]c2c1	19%	44%
Nc1ccc(CCNC(=O)c2ccccc2Nc2ccc3c(/C=C/c4ccccn4)n[nH]c3c2)cc1	31%	32%
O=C(NCCCCc1ccccc1)c1ccccc1Nc1ccc2c(/C=C/c3ccccn3)n[nH]c2c1	67%	51%
Cc1csc(NC(=O)c2ccccc2Nc2ccc3c(/C=C/c4ccccn4)n[nH]c3c2)n1	95%	15%
CC(C)N(CCNC(=O)c1ccccc1Nc1ccc2c(/C=C/c3ccccn3)n[nH]c2c1)C(C)C	15%	37%
CCC(C)NC(=O)c1ccccc1Nc1ccc2c(/C=C/c3ccccn3)n[nH]c2c1 (centres undefined)	58%	29%
O=C(O)CCCNC(=O)c1ccccc1Nc1ccc2c(/C=C/c3ccccn3)n[nH]c2c1	20%	16%
Cc1ccccc1CNC(=O)c1ccccc1Nc1ccc2c(/C=C/c3ccccn3)n[nH]c2c1	99%	24%

Structure (SMILES)	inhibition at 0.002 µM [1]	inhibition at 0.0005 µM [2]
O=C(NCC1(O)CCCCC1)c1ccccc1Nc1ccc2c(/C=C/c3ccccn3)n[nH]c2c1	-19%	26%
O=C(NCC(F)(F)F)c1ccccc1Nc1ccc2c(/C=C/c3ccccn3)n[nH]c2c1	61 to 95%	34 to 53%
CC(C)(CO)CNC(=O)c1ccccc1Nc1ccc2c(/C=C/c3ccccn3)n[nH]c2c1	22%	8%
O=C(NCCOCCO)c1ccccc1Nc1ccc2c(/C=C/c3ccccn3)n[nH]c2c1	24%	10%
COCCCNC(=O)c1ccccc1Nc1ccc2c(/C=C/c3ccccn3)n[nH]c2c1	31%	26%
O=C(NCc1cccnc1)c1ccccc1Nc1ccc2c(/C=C/c3ccccn3)n[nH]c2c1	78%	30%
O=C(NNC(=O)c1ccccc1Nc1ccc2c(/C=C/c3ccccn3)n[nH]c2c1)c1cccs1	90%	65%
O=C(NNc1ccccc1)c1ccccc1Nc1ccc2c(/C=C/c3ccccn3)n[nH]c2c1	29%	18%
O=C(NN1CCN(CCO)CC1)c1ccccc1Nc1ccc2c(/C=C/c3ccccn3)n[nH]c2c1	25%	25%
O=C(NC1CCC1)c1ccccc1Nc1ccc2c(/C=C/c3ccccn3)n[nH]c2c1	80%	42%
CCCNC(=O)c1ccccc1Nc1ccc2c(/C=C/c3ccccn3)n[nH]c2c1	64%	33%
Cc1ccc(N(C)NC(=O)c2ccccc2Nc2ccc3c(/C=C/c4ccccn4)n[nH]c3c2)nn1	-3%	18%
O=C(NCCN1CCNCC1)c1ccccc1Nc1ccc2c(/C=C/c3ccccn3)n[nH]c2c1	12%	37%
O=C(NC1CCc2ccccc21)c1ccccc1Nc1ccc2c(/C=C/c3ccccn3)n[nH]c2c1 (centres undefined)	86%	19%
O=C(NCCCO)c1ccccc1Nc1ccc2c(/C=C/c3ccccn3)n[nH]c2c1	23 to 31%	8 to 24%
CCOC(CCNC(=O)c1ccccc1Nc1ccc2c(/C=C/c3ccccn3)n[nH]c2c1)OCC	70%	30%
O=C(Nc1ccon1)c1ccccc1Nc1ccc2c(/C=C/c3ccccn3)n[nH]c2c1	16%	6%
O=C(Nc1nnn[nH]1)c1ccccc1Nc1ccc2c(/C=C/c3ccccn3)n[nH]c2c1	18 to 64%	21 to 39%
O=C(NNC(=O)c1ccccc1Nc1ccc2c(/C=C/c3ccccn3)n[nH]c2c1)c1ccccc1O	61%	30%
O=C(NCCNc1ccccc1)c1ccccc1Nc1ccc2c(/C=C/c3ccccn3)n[nH]c2c1	89%	19%
CCCCC(CC)NC(=O)c1ccccc1Nc1ccc2c(/C=C/c3ccccn3)n[nH]c2c1 (centres undefined)	30%	31%
